Data from paper PMC7391767, “Molecular mechanisms underlying menthol binding and activation of TRPM8 ion channel” (Nature Communications, 2020).
Entries after “also recorded” stand apart in the source; their conditions may differ.

Experiments:
[1] = target: T1, wild-type TRPM8 (Mus musculus, UniProt Q8R4D5); assay: open probability from noise analysis of macroscopic current and single-channel recordings; format: cell-based
T1 construct: expressed in transfected cells; host or cells: HEK293T
Method: (§1) Patch-clamp recordings were performed with a HEKA EPC10 amplifier controlled by PatchMaster software (HEKA). Whole-cell recordings were performed at ±80 mV. Patch pipettes were prepared from borosilicate glass and fire-polished to resistance of ~4 MΩ. For whole-cell recording, serial resistance was compensated by 60%. For single-channel recordings, patch pipettes were fire-polished to a higher resistance of 6-to-10 MΩ and then recorded in the inside-out configuration. To maximize the chance of obtaining a patch with only one channel, single-channel recordings were performed about 8 h after transfection. A solution with 130 mM NaCl, 10 mM glucose, 0.2 mM EDTA, and 3 mM HEPES (pH 7.2) was used in both bath and pipette for either whole-cell or single-channel recordings. Membrane potential was clamped at +80 mV for single-channel recordings. Current was sampled at 10 kHz and filtered at 2.9 kHz. All recordings were performed at room temperature (22 °C) with the maximum variation of 1 °C.
From single-channel recordings, the open probability (Po) was calculated after events detection with a hidden Markov approach in the software QuB[49] (http://www.qub.buffalo.edu/). A dead time of 0.32 ms was imposed. As a complementary approach, Po was also estimated from noise analysis[52] of whole-cell recordings. Briefly, the mean current amplitude (I), the squared deviations in current amplitude from the mean value (σ^2), and the single-channel current (i) were measured experimentally from a membrane patch of ion channels. Then the number of ion channels clamped in that patch (N) was determined as3 N=I^2/i⋅I−σ^2.
The maximum current when each of ion channel is at the open state with a Po of 1 is equal to i × N. Then the open probability was calculated as the ratio between the measured macroscopic current and the maximum current calculated by noise analysis. To estimate channel conductance, current amplitude was estimated from all-point histogram of single-channel recordings.

[2] = target: T2, TRPM8 point mutants at sites 840, 910, 916, 972 (Mus musculus, UniProt Q8R4D5); assay: Φ analysis based on single-channel recordings; format: cell-based
T2 construct: expressed in transfected cells; host or cells: HEK293T
Method: as §1
(§2) We followed the principle of Φ-analysis described in published literatures in detail[17],[36],[48]. […] At such a high concentration, only the patches showing the activities of one channel was used for analysis. Single-channel data were processed by the QuB software[49] version 1.4 (ref. [50]). Opening and closing events were detected during idealization with the half amplitude method. Using the simple close ↔ open model (Fig. 6a), the forward and backward rates were determined with a deadtime of 0.3-to-0.4 ms. The equilibrium constant was calculated as the ratio of forward and backward rates. Opening rates and equilibrium constants for each mutant at the same residue site were plotted in log scale (Brønsted plot) before fitting with a linear function to determine the Φ value.

[3] = target: T3, TRPM8 point mutants at sites 840, 910, 916, 972 (Mus musculus, UniProt Q8R4D5, A910G); assay: Φ analysis based on single-channel recordings; format: cell-based; details: TRPM8 910G, mean of single-channel recordings (200u, 500u, 1mM)
T3 construct: expressed in transfected cells; host or cells: HEK293T
Method: as §1, §2

[4] = target: T4, TRPM8 point mutants at sites 840, 910, 916, 972 (Mus musculus, UniProt Q8R4D5, A910I); assay: Φ analysis based on single-channel recordings; format: cell-based; details: TRPM8 910I, mean of single-channel recordings (1mM)
T4 construct: expressed in transfected cells; host or cells: HEK293T
Method: as §1, §2

[5] = target: T5, TRPM8 point mutants at sites 840, 910, 916, 972 (Mus musculus, UniProt Q8R4D5, A910V); assay: Φ analysis based on single-channel recordings; format: cell-based; details: TRPM8 910V, mean of single-channel recordings (1mM, 500um)
T5 construct: expressed in transfected cells; host or cells: HEK293T
Method: as §1, §2

[6] = target: T6, TRPM8 point mutants at sites 840, 910, 916, 972 (Mus musculus, UniProt Q8R4D5, P916F); assay: Φ analysis based on single-channel recordings; format: cell-based; details: TRPM8 916F, mean of single-channel recordings
T6 construct: expressed in transfected cells; host or cells: HEK293T
Method: as §1, §2

[7] = target: T7, TRPM8 point mutants at sites 840, 910, 916, 972 (Mus musculus, UniProt Q8R4D5, T840D); assay: Φ analysis based on single-channel recordings; format: cell-based; details: TRPM8 840D, mean of single-channel recordings (500um, 1mM)
T7 construct: expressed in transfected cells; host or cells: HEK293T
Method: as §1, §2

[8] = target: T8, TRPM8 point mutants at sites 840, 910, 916, 972 (Mus musculus, UniProt Q8R4D5, T840N); assay: Φ analysis based on single-channel recordings; format: cell-based; details: TRPM8 840N, mean of single-channel recordings (1mM, 5mM)
T8 construct: expressed in transfected cells; host or cells: HEK293T
Method: as §1, §2

[9] = target: T9, TRPM8 point mutants at sites 840, 910, 916, 972 (Mus musculus, UniProt Q8R4D5, V972I); assay: Φ analysis based on single-channel recordings; format: cell-based; details: TRPM8 972I, mean of single-channel recordings
T9 construct: expressed in transfected cells; host or cells: HEK293T
Method: as §1, §2

[10] = tested on: TRPM8 point mutants at sites 840, 910, 916, 972; assay: Φ analysis based on single-channel recordings; format: cell-based, mouse; details: for Φ value: 5 mM menthol, single-channel, +80 mV
Method: as §1, §2

[11] = target: T10, TRPM8 (Mus musculus, UniProt Q8R4D5); assay: whole-cell patch-clamp recording in response to a voltage ramp; format: cell-based; details: beyond −200 mV; near saturating menthol (0.5 mM)
T10 construct: expressed in transfected cells; host or cells: HEK293T
Description: Supplementary Figure 8. Deep hyperpolarization antagonized me nthol activation of TRPM8 but not capsaicin activation of TRPV1. ( a) Representative whole-cell patch- clamp recording of menthol activation of TRPM8 in response to a voltage ramp. In the hyperpolarized voltage range, TRPM8 current increased first and then decreased […]
mM menthol. (b) Representative whole- cell patch- clamp recording of capsaicin activation of TRPV1 in response to a voltage ramp. In the hyperpolarized voltage range, TRPV1 current kept increasing linearly with the lowering of membrane potential, which […]
(1 picture or pasted object on this page, not shown here)

[12] = TRPM8 840T (recordings 1S-AF/2S-AF, 500um, 1mM)
[13] = TRPM8 910A (recordings 1S-AF/2S-AF, 500um, 1mM)
[14] = TRPM8 916P (recordings 1S-AF/2S-AF, 500um, 1mM)
[15] = TRPM8 972V (recordings 1S-AF/2S-AF, 500um, 1mM)
[16] = TRPM8 840A, mean of single-channel recordings (500um)
[17] = TRPM8 910T, mean of single-channel recordings (1mM, 5mM)
[18] = TRPM8 972L, mean of single-channel recordings

T2 sequence (Q8R4D5 whole entry, change not shown): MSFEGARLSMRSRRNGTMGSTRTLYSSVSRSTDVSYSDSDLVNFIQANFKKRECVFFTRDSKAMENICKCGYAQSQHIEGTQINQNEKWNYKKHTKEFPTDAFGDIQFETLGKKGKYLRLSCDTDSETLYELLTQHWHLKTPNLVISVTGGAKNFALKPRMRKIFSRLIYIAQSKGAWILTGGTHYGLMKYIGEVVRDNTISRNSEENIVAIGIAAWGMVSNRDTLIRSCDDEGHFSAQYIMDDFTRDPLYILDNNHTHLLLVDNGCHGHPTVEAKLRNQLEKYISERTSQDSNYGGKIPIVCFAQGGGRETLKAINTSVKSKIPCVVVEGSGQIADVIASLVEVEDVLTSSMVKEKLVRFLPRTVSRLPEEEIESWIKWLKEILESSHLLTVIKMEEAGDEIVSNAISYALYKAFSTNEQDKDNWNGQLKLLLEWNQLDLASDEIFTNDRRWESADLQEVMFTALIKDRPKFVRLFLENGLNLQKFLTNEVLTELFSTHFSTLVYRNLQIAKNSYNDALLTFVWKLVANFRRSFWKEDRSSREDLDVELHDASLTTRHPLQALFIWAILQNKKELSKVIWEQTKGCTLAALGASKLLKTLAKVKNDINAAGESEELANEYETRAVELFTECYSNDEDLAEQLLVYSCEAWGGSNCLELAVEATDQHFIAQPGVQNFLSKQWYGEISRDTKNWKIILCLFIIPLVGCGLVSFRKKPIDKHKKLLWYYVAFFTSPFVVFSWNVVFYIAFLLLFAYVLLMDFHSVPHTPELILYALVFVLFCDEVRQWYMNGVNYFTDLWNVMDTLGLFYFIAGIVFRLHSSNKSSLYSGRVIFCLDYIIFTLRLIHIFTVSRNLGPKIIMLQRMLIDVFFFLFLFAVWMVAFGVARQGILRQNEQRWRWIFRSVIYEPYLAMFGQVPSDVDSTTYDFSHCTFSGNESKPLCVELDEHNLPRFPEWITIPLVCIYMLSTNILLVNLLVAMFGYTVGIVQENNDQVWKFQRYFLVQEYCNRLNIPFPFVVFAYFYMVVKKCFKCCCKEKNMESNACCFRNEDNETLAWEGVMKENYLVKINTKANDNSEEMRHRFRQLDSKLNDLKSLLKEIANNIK
T4 sequence (Q8R4D5 whole entry A910I): as the sequence (Q8R4D5 whole entry, change not shown) above, with A910I counted along it
T5 sequence (Q8R4D5 whole entry A910V): as the sequence (Q8R4D5 whole entry, change not shown) above, with A910V counted along it
T8 sequence (Q8R4D5 whole entry T840N): as the sequence (Q8R4D5 whole entry, change not shown) above, with T840N counted along it
T7 sequence (Q8R4D5 whole entry T840D): as the sequence (Q8R4D5 whole entry, change not shown) above, with T840D counted along it
T1 sequence (Q8R4D5 whole entry): as the sequence (Q8R4D5 whole entry, change not shown) above
T10 sequence (Q8R4D5 whole entry): as the sequence (Q8R4D5 whole entry, change not shown) above
T3 sequence (Q8R4D5 whole entry A910G): as the sequence (Q8R4D5 whole entry, change not shown) above, with A910G counted along it
T6 sequence (Q8R4D5 whole entry P916F): as the sequence (Q8R4D5 whole entry, change not shown) above, with P916F counted along it
T9 sequence (Q8R4D5 whole entry V972I): as the sequence (Q8R4D5 whole entry, change not shown) above, with V972I counted along it

Compound: CC(C)[C@@H]1CC[C@@H](C)C[C@H]1O [menthol, (−)-menthol]
- agonist nature ([1]; noise analysis of macroscopic current, confirmed in single-channel recordings): partial agonist
- maximum open probability (Po max) ([1]; wild-type TRPM8, near saturating concentration (menthol 500 µM)): 0.81 ± 0.03
- logKeqave [2, 12]: -0.1349
- ratesave (mean log forward rates) [2, 12]: 2.916
- logKeqave [2, 13]: -0.1349
- ratesave (mean log forward rates) [2, 13]: 2.916
- logKeqave [2, 14]: -0.1349
- logratesave [2, 14]: 2.916
- logKeqave [2, 15]: -0.1349
- logratesave [2, 15]: 2.916
- logKeqave [3]: -0.02911
- ratesave (mean log forward rates) [3]: 2.893
- logKeqave [4]: -1.154
- ratesave (mean log forward rates) [4]: 2.135
- logKeqave [5]: 0.7613
- ratesave (mean log forward rates) [5]: 3.348
- logKeqave [6]: 0.4532
- logratesave [6]: 3.166
- logKeqave [7]: 0.4314
- ratesave (mean log forward rates) [7]: 3.1375
- logKeqave [8]: 0.1255
- ratesave (mean log forward rates) [8]: 3.014
- logKeqave [9]: -0.5254
- logKeqave [10, 16]: -0.9923
- ratesave (mean log forward rates) [10, 16]: 2.126
- logKeqave [10, 17]: 0.1885
- ratesave (mean log forward rates) [10, 17]: 3.0067
- logKeqave [10, 18]: 0.4054
- logratesave [10, 18]: 3.126
- phi from single-channel recording ([10]; site 840): 0.7339
- Φ value ([10]; site 840): 0.73
- phi from single-channel recording ([10]; site 910): 0.6331
- Φ value ([10]; site 910): 0.63
- phi from single-channel recording ([10]; site 916): 0.4253
- Φ value ([10]; site 916): 0.42
- phi from single-channel recording ([10]; site 972): 0.711
- Φ value ([10]; site 972): 0.71
- effect of deep hyperpolarization on ligand-activated channel [11]: decreased towards zero; also recorded: closed the channel
